Reference: patent US4350700A, “Pharmaceutical composition containing 1,3,5-substituted biuret compound” (Taiho Pharmaceutical Company, Limited, priority 1979, dated 1982)
Read-outs that look alike come from different tables or passages of the source.

Columns and labels:
[1] = Acute toxicity (oral, general symptom and death observed for 7 days); format: in vivo, mice (ddy strain, male); conditions: mouse, in vivo; oral, mice, 7 days observation (Δ values); read-out: Acute toxicity, 50% lethal dose LD50
In short: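 Male ddy mice (20-25 g), fasted overnight, dosed orally with compound suspended in 0.25% carboxymethylcellulose; symptoms and deaths observed for 7 days. Lethal dose (mg/kg) derived from deaths/number tested; marked values are LD50.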

[2] = system: 10% dry-yeast suspension-induced fever of rats; test: Anti-pyretic activity (dry-yeast induced fever, febril index); format: in vivo, rats (Wistar strain, male); conditions: oral, febril index up to 4 hours after administration, dose not stated
Method: Next, several tests for determining the pharmacological properties, in that acute toxicity, anti-pyretic activity, analgesic activity and anti-inflammatory activity of the present 1,3,5-substituted biuret compounds of the formula (1) were conducted and the test results are shown in Table (2). In the tests, each compounds to be tested was used as a suspension in 0.25% carboxymethylcellulose solution. Methods for testing are explained as follows:
According to the method reported by Tanabe [Folia Pharmacologia Japonica, Vol. 73, pp. 803 (1977)], the Wistar strain of male rats (150-180 g body weight) were used as test animals. The rats were fasted overnight, and 1 ml/100 g (body weight) of 10% dry-yeast suspension were subcutaneously injected on the back of the rats. Five hours afte the injection, the test compound was administered orally, then the body temperature of the rat was measured time sequences. Anti-pyretic activity of the test compound was determined as the FI (febril index) by integrating pyrogenetic curve up to 4 hours after the administration of the test compound with time, and indicated as inhibitory ratio (%) shown by the following formula, [formula]

[3] = system: acetic acid-induced stretching symptom of mouse; test: Analgesic activity, acetic acid-induced stretching method; format: in vivo, mice (ddy strain, male); conditions: for inhibition in vivo at 100 mg/kg: read-out: Analgesic activity, acetic acid-induced stretching method, inhibitory ratio; for ED50: oral, mice (Δ values; range in parentheses), read-out: Analgesic activity, acetic acid-induced stretching method, 50% effective dose ED50
In short: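 Overnight-fasted male ddy mice (20-25 g) dosed orally at 100 mg/kg (0.25% CMC suspension); 0.7% acetic acid given i.p. 1 h later and stretching observed. Values are % inhibition; some entries from other doses, or ED50 (mg/kg).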

[4] = system: pain reaction of the mouse caused by a clamp; test: Analgesic activity, Haffner method; format: in vivo, mice (ddy strain, male); conditions: for Analgesic activity, Haffner method, inhibitory ratio: 100 mg/kg oral, mice
In short: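 Male ddy mice weighing 20-25 g were fasted overnight, then given the test compound orally as a suspension in 0.25% carboxymethylcellulose solution. Forty-five minutes later, a threshold subcutaneous dose of morphine hydrochloride (1.5-2.5 mg/kg body weight) was injected. Pain reactions to a clamp were then observed over 1 hour. Analgesia was expressed as an inhibitory ratio (%) and as a 50% effective dose, ED50 (mg/kg body weight).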

[5] = system: carrageenin-induced inflammation of the hindpaw of the rat; test: Anti-inflammatory activity, acute carrageenin-induced inflammatory test; format: in vivo, rats (Wistar strain, male); conditions: Rattus norvegicus, read-out: Anti-inflammatory activity, inflammation inhibitory ratio
In short: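 Fasted male Wistar rats (150-180 g) dosed orally with 100 mg/kg compound suspended in 0.25% carboxymethylcellulose; 1 h later 0.1 ml of 1% carrageenin injected subcutaneously into hindpaw. Paw volume tracked over time; activity expressed as inflammation inhibitory ratio (%) at 3 hours post-injection.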

[6] = 100 mg/kg oral, rats, 3 hours after carrageenin

With `CNC(=O)N(C)C(=O)Nc1ccc(OC)cc1` [Compound No. 8, 1,3-Dimethyl-5-(4-methoxyphenyl)-biuret] the LD50 at 168 h [1] was 1440 mg/kg, the “Anti-pyretic activity, inhibitory ratio” value [2] was 110% and the inhibition in vivo at 100 mg/kg ([3]; 100 mg/kg oral, mice) was 87.5%. For the same compound, the “Analgesic activity, Haffner method, inhibitory ratio” value [4] was 50% and the inhibition in vivo at 100 mg/kg [5, 6] was 40%.
In the case of `CNC(=O)N(C)C(=O)Nc1ccc(Cl)cc1` [compound 6], the LD50 at 168 h [1] is reported as 1240 mg/kg, the “Anti-pyretic activity, inhibitory ratio” value [2] is reported as 72% and the ED50 [3] is reported as 40 mg/kg. The “Analgesic activity, Haffner method, inhibitory ratio” value [4] was 50% and the inhibition in vivo at 100 mg/kg ([5]; po, 3 h) was 43%.
For `CCNC(=O)N(C)C(=O)Nc1ccc(OC)c(OC)c1` [compound 36, 1-Ethyl-3-methyl-5-(3,4-dimethoxyphenyl)biuret], the LD50 at 168 h [1] was 833 mg/kg, the “Anti-pyretic activity, inhibitory ratio” value [2] was 43% and the inhibition in vivo at 100 mg/kg ([3]; po) was 50%. For the same compound, the “Analgesic activity, Haffner method, inhibitory ratio” value [4] was 62.5% and the inhibition in vivo at 100 mg/kg ([5]; po, 3 h) was 23%.
For `CNC(=O)N(C)C(=O)Nc1ccccc1` [Compound No. 3, 1,3-dimethyl-5-phenylbiuret], the LD50 at 168 h [1] was 1450 mg/kg, the “Anti-pyretic activity, inhibitory ratio” value [2] was 145% and the ED50 [3] was 35 mg/kg. For the same compound, the ED50 ([4]; Mus musculus, oral, mice (Δ values; range in parentheses), read-out: Analgesic activity, Haffner method, 50% effective dose ED50) was 111 mg/kg and the inhibition in vivo at 100 mg/kg [5, 6] was 88%.
